Test results taken from patent publication US11753433B2, “Methods of synthesizing substituted purine compounds” (Epizyme, Inc., priority 2013, dated 2023).

What was measured:
Solid-state stability = format: physicochemical
Protocol: Chemical Stability: Accurately weighed ˜10 mg Form B was placed into four 10-ml volumetric flasks. The samples were stored at 5° C. closed dish, 25° C./57% RH open dish, 40° C./75% RH open dish, and 60° C. closed dish for 7 days. The sample stored at 5° C. was used as a control. Assay and total related substances for each sample were checked at the end of 7 days.
Physical Stability: Accurately weighed ˜15 mg of Form B was placed into 5-ml glass vials and the samples were stored at 5° C. closed dish, 25° C./57% RH open dish, 40° C./75% RH open dish, and 60° C. closed dish for 7 days. Samples were analyzed by XRPD and TGA (FIG. 24).

Solution photostability = format: physicochemical
Protocol: Solution Photostability: Weighed ˜1 mg of Form B and dissolved in 3 solutions at different pHs (0.01 N HCl, 0.01 N NaOH and water). Methanol was added as a co-solvent to dissolve Form B in solutions (i.e., 10% (v/v) methanol in 0.01 N HCl, 20% (v/v) in water and 30% (v/v) in 0.01 N NaOH), the final concentration was 0.1 mg/mL. For each solution, 1 sample and 1 control covered in foil were put into the photo chamber for Vis study (2 vials total for each solution). Measure the concentration and monitor the degradation.

[1] = 5° C. Closed Dish, 7 Days (control)
[2] = 25° C./57% RH Open Dish, 7 Days
[3] = 40° C./75% RH Open Dish, 7 Days
[4] = 0.01N HCl Dark, Vis Stability (1.2 Mil lux-hours)
[5] = 0.01N HCl Dark, Vis-UV Stability (1.2 Mil lux-hours + 200 Watt-hours/m^2)
[6] = 0.01N HCl Light, Vis Stability (1.2 Mil lux-hours)
[7] = 0.01N HCl Light, Vis-UV Stability (1.2 Mil lux-hours + 200 Watt-hours/m^2)
[8] = 0.01N NaOH Dark, Vis Stability (1.2 Mil lux-hours)
[9] = 0.01N NaOH Dark, Vis-UV Stability (1.2 Mil lux-hours + 200 Watt-hours/m^2)
[10] = 0.01N NaOH Light, Vis Stability (1.2 Mil lux-hours), precipitation observed
[11] = 0.01N NaOH Light, Vis-UV Stability (1.2 Mil lux-hours + 200 Watt-hours/m^2), precipitation observed
[12] = H2O Dark, Vis Stability (1.2 Mil lux-hours)
[13] = H2O Dark, Vis-UV Stability (1.2 Mil lux-hours + 200 Watt-hours/m^2)
[14] = H2O Light, Vis Stability (1.2 Mil lux-hours)
[15] = H2O Light, Vis-UV Stability (1.2 Mil lux-hours + 200 Watt-hours/m^2)

## CC(C)N(C[C@H]1O[C@@H](n2cnc3c(N)ncnc32)[C@H](O)[C@@H]1O)[C@H]1C[C@@H](CCc2nc3cc(C(C)(C)C)ccc3[nH]2)C1 [Form B, (2R,3R,4S,5R)-2-(6-amino-9H-purin-9-yl)-5-((((1r,3S)-3-(2-(5-(tert-butyl)-1H-benzo[d]imidazol-2-yl)ethyl)cyclobutyl)(isopropyl)amino)methyl)tetrahydrofuran-3,4-diol trihydrate]
Solid-state stability; [1]
  Chemical Area % (100% − TRS %): 99.1%
  Physical TGA (%): 8.63%
  Physical XRPD: Form B
Solid-state stability; 5° C. Closed Dish, 7 Days (used as standard)
  Chemical % Claim (Cs/Ci × 100%): 100.0^& %
Solid-state stability; [2]
  Chemical % Claim (Cs/Ci × 100%): 100.7%
  Chemical Area % (100% − TRS %): 99.0%
  Physical TGA (%): 8.66%
  Physical XRPD: Form B
Solid-state stability; [3]
  Chemical % Claim (Cs/Ci × 100%): 101.0%
  Chemical Area % (100% − TRS %): 99.0%
  Physical TGA (%): 8.64%
  Physical XRPD: Form B
Solid-state stability; 60° C. Closed Dish, 7 Days
  Chemical % Claim (Cs/Ci × 100%): 100.7%
  Chemical Area % (100% − TRS %): 99.1%
  Physical TGA (%): 8.49%
  Physical XRPD: Form B
Solution photostability; [4]
  % area: 99.4%
  % claim: 100.0%
  Final pH: 2.1
Solution photostability; [5]
  % area: 99.9%
  % claim: 100.0%
  Final pH: 2.1
Solution photostability; [6]
  % area: 98.5%
  % claim: 98.8%
  Final pH: 2.1
Solution photostability; [7]
  % area: 99.9%
  % claim: 99.9%
  Final pH: 2.1
Solution photostability; [8]
  % area: 99.7%
  % claim: 100.0%
  Final pH: 11.6
Solution photostability; [9]
  % area: 100.0%
  % claim: 100.0%
  Final pH: 11.7
Solution photostability; 0.01N NaOH Light, Vis Stability (1.2 Mil lux-hours)
  Final pH: 11.7
Solution photostability; [10]
  % area: 99.6%
  % claim: 44.5%
Solution photostability; 0.01N NaOH Light, Vis-UV Stability (1.2 Mil lux-hours + 200 Watt-hours/m^2)
  Final pH: 11.7
Solution photostability; [11]
  % area: 99.3%
  % claim: 66.3%
Solution photostability; [12]
  % area: 100.0%
  % claim: 100.0%
  Final pH: 7.7
Solution photostability; [13]
  % area: 100.0%
  % claim: 100.0%
  Final pH: 8.1
Solution photostability; [14]
  % area: 99.6%
  % claim: 98.5%
  Final pH: 7.3
Solution photostability; [15]
  % area: 99.3%
  % claim: 94.7%
  Final pH: 7.3
Solution photostability; all solutions in 0.01N NaOH
  observation in solution photostability study: Precipitation was observed
Solution photostability; in water and 0.01N HCl solution, UV/Vis exposure
  solution photostability (in words): stable upon exposure to UV/Vis
